Data as given in ChEMBL document CHEMBL1156829 (Proc Natl Acad Sci U S A, 2008).

Assays:
[1] = tested on: Plasmodium falciparum; experiment: NOVARTIS: Inhibition of Plasmodium falciparum 3D7 (drug-susceptible) proliferation in erythrocyte-based infection assay; format: functional, organism-based; conditions: Plasmodium falciparum, 3D7
[2] = tested on: Plasmodium falciparum; experiment: NOVARTIS: Inhibition of Plasmodium falciparum W2 (drug-resistant) proliferation in erythrocyte-based infection assay; format: functional, organism-based; conditions: Plasmodium falciparum, W2; read-out: EC50
[3] = NOVARTIS: Cytotoxicity against human hepatocellular carcinoma cell line (Huh7); format: toxicity, cell-based, Huh-7; conditions: Huh7 cells (hepatocellular carcinoma cell line)

Row | SMILES | EC50 [1] [nM] | EC50 [2] [nM] | CC50 [3] [nM]
1 | OC(CN1CCOCC1)Cn1c2ccc(Br)cc2c2cc(Br)ccc21 (stereo not given) | 991 | 440 | 47400
2 | OCCNCCNCc1ccc2[nH]c3ccccc3c2c1 | 291 | 7600 | 28900
3 | CCn1c2c(c(=N)c3ccccc31)CCC2 | 341 | 954 | > 100000
4 | Nc1nonc1-n1nnc(C(=O)NN=Cc2ccc(F)c(Br)c2)c1-c1ccc([N+](=O)[O-])cc1 | 292 | 128 | > 100000
5 | O=c1c2c([nH]c3cc(Cl)ccc13)CCCC2 | 333 | 649 | > 100000
6 | CCCCN(CC)CCNC(=O)c1cc2c(-c3ccc(Cl)cc3)nn(C)c2s1 | 89.8 | 320 | 39800
7 | CCCCCCCCC(=O)NCCCCNc1ccnc2cc(Cl)ccc12 | 1140 | 286 | 5600
8 | CN1CCc2c(sc3c2C(=O)NC(c2ccc(O)cc2)N3)C1 (stereo not given) | 755 | 378 | 33600
9 | CCOC(=O)c1ccc2c(c1)[n+](CC)c(/C=C/N(C)c1ccccc1)n2CC | 272 | 588 | 34400
10 | Fc1ccc(Nc2nc(OC(C(F)(F)F)C(F)(F)F)nc(OC(C(F)(F)F)C(F)(F)F)n2)cc1 | > 1340 | 1570 | > 10000
11 | O=[N+]([O-])c1ccc(C=NN2CCN(Cc3ccccc3Cl)CC2)cc1 | > 7220 | > 1590 | > 100000
12 | CCCCCCCCCn1c2c(c(=N)c3c1CCC3)CCCC2 | 132 | 185 | 3740
13 | O=S(=O)(NCCNc1ncnc2scc(-c3ccccc3)c12)c1ccc(Cl)c(Cl)c1 | 290 | 307 | > 100000
14 | CCc1cccc(NC(=S)N2CCCC2c2ccccc2C(F)(F)F)c1 (stereo not given) | 408 | 170 | > 10000
15 | CC(C)CC(N)C(=O)N1CCn2c(nc(-c3ccccc3)c2Nc2ccc3c(c2)OCO3)C1 (stereo not given) | 119 | 122 | > 79500
16 | Cc1cc(N2CCN(CC=Cc3ccccc3)CC2)n2c(nc3ccccc32)c1C#N | 657 | 942 | > 100000
17 | CC[n+]1c(C=C2C=CN(C)C=C2)ccc2cc(C)ccc21 | 388 | 286 | > 26800
18 | CN(C)c1cccc(Nc2cc(-c3ccc(CC(N)C(=O)O)cc3)nc3ccnn23)c1 (stereo not given) | 600 | 594 | > 10000

Row | SMILES | EC50 [1] [nM] | EC50 [2] [nM] | CC50 [3] [nM]
19 | CCCCCCN(C(=O)c1ccc(C(C)(C)C)cc1)C(CC)c1nc2ccccc2c(=O)n1-c1ccccc1OC (stereo not given) | 356 | 348 | > 10000
20 | CCN(CC)CCCNc1nc2cc(OC)c(OC)cc2c2nc(-c3ccccc3)nn12 | 3250 | 1170 | > 100000
21 | CC(=O)N1CCN(c2ccc(NC(=S)NC(=O)c3ccc(C)cc3)cc2)CC1 | > 12500 | 3790 | > 95700
22 | O=C(Nc1ccc(F)c(F)c1)c1cc2cc(C3(O)CCN(Cc4ccccc4F)CC3)ccc2o1 | 1500 | 1850 | 12800
23 | O=C(CCN1C(=O)C2CCCCC2C1=O)N1CCc2ccccc2C1 (stereo not given) | > 4850 | 7490 | > 100000
24 | COc1cc(CNc2ccc(N3CCCCC3)cc2)cc(Cl)c1OCc1ccc(F)cc1 | 3040 | 1540 | > 100000
25 | CCN(CC)c1ccc(/C=C(/C#N)c2nc3ccccc3[nH]2)o1 | > 1250 | > 702 | > 333
26 | COc1ccc(-c2cncc3ccc(C(=O)NCc4ccncc4)nc23)cc1 | > 1350 | 1190 | > 10000
27 | CCCCCCCCn1c(C)[n+](CC)c2cc(C(=O)OCC)ccc21 | 686 | 504 | > 100000
28 | CCOC(=O)C1=C(C)NC2=C(C(=O)CC(c3ccc(OC)c(OC)c3)C2)C1c1ccccc1Br (stereo not given) | 73.2 | 26.7 | > 100000
29 | CC1CC(C)CC(C)C(O)C(C#N)=CC=CCC(C2CCCC2C(=O)O)OC(=O)CC(O)C(C)C1 (stereo not given) | 43.7 | > 1250 | 2850
30 | O=C(c1cnsn1)N1CCCC(COc2cccc(CN3CCC(Cc4ccccc4)CC3)c2)C1 (stereo not given) | > 3670 | > 12500 | > 100000
31 | COc1ccc(CN(CC2CCN(C(=O)c3ccccc3Cl)CC2)C(=O)c2ccc(Cl)cc2Cl)cc1 | 7250 | 3310 | 24300
32 | COC(=O)C1=C(O)/C(=C\c2cc(C)n(-c3ccccc3F)c2C)N=C1C | > 974 | > 1250 | > 10000
33 | CN(C)CCCN(Cc1cc2cc3c(cc2[nH]c1=O)OCO3)C(=S)Nc1cccc(Cl)c1 | 978 | 918 | > 100000
34 | CCN(CC)CCCC(C)Nc1ccnc2cc3ccccc3cc12 (stereo not given) | 90.1 | 933 | 21300
35 | Oc1ccc(-c2ccc3c(c2)OCO3)cc1CNCC1CC2C=CC1C21CC1 (stereo not given) | 1110 | 274 | > 100000
